Measured values from patent US9522881B2, “Hydroxyindole carboxylic acid based inhibitors for oncogenic Src homology-2 domain containing protein tyrosine phosphatase-2 (SHP2)” (Indiana University Research and Technology Corporation, priority 2013, dated 2016).
Entries after “also recorded” stand apart in the source; their conditions may differ.

Legend:
[1] = target: SHP2 (D2C) (Homo sapiens (Human), UniProt Q06124); assay: SHP2 (D2C) pNPP inhibition assay, hits of library 7′a-c; assay type: biochemical; details: for IC50: pNPP substrate, pH 7, 25° C., library 7′a / 7′c hits
Protocol: These three libraries were further screened at 10 μM for SHP2. […] Three pairs of hits bearing the same amine scaffold from library 7′a and 7′c were resynthesized and purified by HPLC. […] (Table 1).
In this Example, SHP2 (D2C) was used to transform into E. coli BL21/DE3 and grown in LB medium containing 50 μg/ml kanamycin at 37° C. to an OD600 of 0.4. Following the addition of IPTG to a final concentration of 20 μM, the culture was incubated at 20° C. with shaking for an additional 16 hours. The cells were harvested by centrifugation at 5000 rpm for 5 minutes at 4° C. The bacterial cell pellets were resuspended in 20 mM Tris, pH 7.9, 500 mM NaCl, 5 mM imidazole, and were lysed by passage through a French press cell at 1,200 psi twice. Cellular debris was removed by centrifugation at 16,000 rpm for 30 minutes at 4° C. The protein was purified from the supernatant using standard procedures of Ni-nitrilotriacetic acid-agarose (Qiagen) affinity purification. The protein eluted from Ni-NTA column was concentrated with an Amicon Ultra centrifugal filter device (Millipore) and the buffer was changed to 20 mM Tris, pH 7.5, 150 mM NaCl, 1 mM EDTA and 1 mM DTT. Protein concentration was determined using the Bradford dye binding assay (Bio-Rad) diluted according to the manufacturer's recommendations with bovine serum albumin as standard. The purified SHP 2 (D2C) were made to 30% glycerol and stored at −20° C.
Inhibition Study: The inhibition assays were performed at 25° C. in 50 mM 3,3-dimethylglutarate buffer, pH 7.0, containing 1 mM EDTA with an ionic strength of 0.15M adjusted by NaCl. The salicylic acid based library was screened in a 96-well format at 10 μM compound concentration. […] The reaction was quenched after 10 minutes by the addition of 50 μl of 5N NaOH, and then this reaction mixture was detected for absorbance at 405 nm by a Spectra MAX340 microplate spectrophotometer (Molecular Devices). IC50 values were calculated by fitting the absorbance at 405 nm versus inhibitor concentration to the following equation: AI/A0=IC50/(IC50+[I]) where AI is the absorbance at 405 nm of the sample in the presence of inhibitor; A0 is the absorbance at 405 nm in the absence of inhibitor; and [I] is the concentration of the inhibitor.

[2] = system: EGF-induced Erk1/2 phosphorylation; assay: EGF-induced Erk1/2 phosphorylation in H1975 cells (immunoblot); assay type: cell-based, human; details: H1975 cells, 2 μM
Protocol: (§1) For biochemical studies, H1975 cells were serum-starved overnight followed by treatment with vehicle or compound 11a-1 for 3 hours, and then either left unstimulated or stimulated with 5 ng/ml EGF (Sigma, St. Louis, Mo.) for 60 minutes. Lysates were then resolved by SDS-PAGE and the protein phosphorylation levels were detected by immunoblot analysis. Specifically, cells were lysed in lysis buffer (1.0% Nonidet P-40, 50 mM Tris-HCl (pH 7.4), 150 mM NaCl, 5 mM EDTA, 2 mM NaVO3, 10 mM NaF) plus a protease inhibitor mixture available from Roche (Basel, Switzerland) and centrifuged at 10,000 rpm for 5 minutes at 4° C. Supernatants were collected and protein concentration was determined using the BCA protein assay (ThermoFisher Scientific, Rockford, Ill.). Equal amount of protein extracts were mixed with gel loading buffer and separated on SDS-PAGE. After electrophoresis, the proteins were transferred onto nitrocellulose membranes and nonspecific binding was blocked with 5% nonfat dry milk in Tris-buffered saline containing 0.1% Tween-20 (TBS-T). Membranes were then probed with various antibodies overnight at 4° C. on a rocker. After incubation, membranes were washed with TBS-T and incubated with appropriate horseradish peroxidase (HRP)-conjugated secondary antibodies for 1 hour at room temperature. Finally, the proteins on the membranes were detected using SuperSignal West Dura Luminol/Enhancer solution (ThermoFisher Scientific, Rockford, Ill.) and membranes were analyzed using Bio-Rad ChemiDoc XRS Imaging System.

[3] = system: Paxillin (pY118); assay: Paxillin (pY118) phosphorylation in H1975 cells (immunoblot); assay type: cell-based, human; details: 2 μM
Protocol: as §1

[4] = target: SHP2 (Homo sapiens (Human), UniProt Q06124); assay: SHP2-catalyzed hydrolysis of p-nitrophenyl phosphate (pNPP); assay type: biochemical; details: pNPP substrate, pH 7.0, 25° C.
Protocol: Libraries 11a-d were screened at ˜5 μM for SHP2 inhibitors without further purification. The ability of the library components to inhibit the SHP2-catalyzed hydrolysis of p-nitrophenyl phosphate (pNPP) was evaluated at pH 7.0 and 25° C. More particularly, the phosphatase activity of SHP2 was assayed using p-nitrophenyl phosphate (pNPP) as a substrate at 25° C. in 50 mM 3,3-dimethylglutarate buffer, pH 7.0, containing 1 mM EDTA with an ionic strength of […] adjusted by NaCl. The libraries were screened in a 96-well format at 5 μM compound concentration. […] The nonenzymatic hydrolysis of pNPP was corrected by measuring the control without the addition of enzyme. The amount of product p-nitrophenol was determined from the absorbance at 405 nm detected by a Spectra MAX340 microplate spectrophotometer (Molecular Devices, Sunnyvale, Calif.) using a molar extinction coefficient of 18,000 M^−1 cm^−1. […] IC50 values for selected resynthesized and purified hits were calculated by fitting the absorbance at 405 nm versus inhibitor concentration to the following equation: AI/A0=IC50/(IC50+[I]) where AI is the absorbance at 405 nm of the sample in the presence of the inhibitor; A0 is the absorbance at 405 nm in the absence of inhibitor; and [I] is the concentration of the inhibitor.

[5] = system: 32D myeloid cells bearing wild-type (WT) KIT; assay: Proliferation (thymidine incorporation) of 32D myeloid cells bearing WT KIT; assay type: cell-based; details: tested concentrations, with IL-3
Protocol: (§2) FIG. 8A is a graph depicting 32D myeloid cells bearing wild-type (WT) KIT or KITD814V that were starved of serum and growth factors for 6 hours and subjected to proliferation assay in the presence or absence of the indicated concentration of II-B08 or 11a-1 as analyzed in Example 6. Assay was performed in the presence of IL-3 (10 ng/mL) for cells bearing WT KIT and in the absence of growth factors for cells bearing oncogenic KITD814V. Bars denote the mean thymidine incorporation (CPM±SEM) consolidated from four independent experiments performed in triplicate. *p<0.05.
To further determine the efficacy of compound 11a-1, the growth of oncogenic KITD814V bearing 32D myeloid cells in the presence of II-B08 and 11a-1 were compared. Specifically, the wild-type (WT) KIT and KITD814V were inserted into the bicistronic retroviral vector, MIEG3, upstream of the internal ribosome entry site (IRES) and the enhanced green fluorescent protein (EGFP) gene as previously described in Mali et al., 2012. Retroviral supernatants for transduction of 32D myeloid cells and primary hematopoietic stem and progenitor cells were generated using Phoenix ecotropic packaging cell line transfected with retroviral vector plasmids using a calcium phosphate transfection kit (Invitrogen, Carlsbad, Calif.). Supernatants were collected 48 hours after transfection and filtered through 0.45 μm membranes. […]

[6] = system: 32D myeloid cells bearing KITD814V; assay: Proliferation (thymidine incorporation) of 32D myeloid cells bearing KITD814V; assay type: cell-based
Protocol: as §2
To further determine the efficacy of compound 11a-1, the growth of oncogenic KITD814V bearing 32D myeloid cells in the presence of II-B08 and 11a-1 were compared. Specifically, the wild-type (WT) KIT and KITD814V were inserted into the bicistronic retroviral vector, MIEG3, upstream of the internal ribosome entry site (IRES) and the enhanced green fluorescent protein (EGFP) gene as previously described in Mali et al., 2012. Retroviral supernatants for transduction of 32D myeloid cells and primary hematopoietic stem and progenitor cells were generated using Phoenix ecotropic packaging cell line transfected with retroviral vector plasmids using a calcium phosphate transfection kit (Invitrogen, Carlsbad, Calif.). Supernatants were collected 48 hours after transfection and filtered through 0.45 μm membranes. 32D myeloid cells were infected twice at 24-hour intervals with 2 mL high/titer virus supernatant in the presence of 10 ng/mL IL-3 and 8 μg/mL polybrene. Forty-eight hours after infection, 32D cells expressing WT KIT or KITD814V receptors were sorted to homogeneity based on EGFP expression and utilized to perform all of the experiments.

[7] = system: leukemic mice; details: together with PI3Kinase inhibitor LY294002, compared to either inhibitor alone; cited from earlier work
[8] = system: hematopoietic progenitor; details: cited from earlier work
[9] = system: growth factor stimulated ERK1/2 activation; details: cited from earlier work
[10] = system: 32D myeloid cells bearing KITD814V; details: previously shown (Mali et al., 2012); cited from earlier work

SHP2 (D2C), sequence (Q06124 240-528): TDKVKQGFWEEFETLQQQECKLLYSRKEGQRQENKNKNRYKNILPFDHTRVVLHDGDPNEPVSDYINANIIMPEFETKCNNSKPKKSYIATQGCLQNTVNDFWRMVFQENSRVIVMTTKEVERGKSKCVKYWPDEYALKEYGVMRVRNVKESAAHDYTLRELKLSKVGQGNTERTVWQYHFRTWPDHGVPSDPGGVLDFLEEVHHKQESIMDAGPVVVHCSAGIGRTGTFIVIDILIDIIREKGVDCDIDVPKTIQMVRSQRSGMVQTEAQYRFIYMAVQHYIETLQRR
SHP2, sequence (Q06124 whole entry, looked up): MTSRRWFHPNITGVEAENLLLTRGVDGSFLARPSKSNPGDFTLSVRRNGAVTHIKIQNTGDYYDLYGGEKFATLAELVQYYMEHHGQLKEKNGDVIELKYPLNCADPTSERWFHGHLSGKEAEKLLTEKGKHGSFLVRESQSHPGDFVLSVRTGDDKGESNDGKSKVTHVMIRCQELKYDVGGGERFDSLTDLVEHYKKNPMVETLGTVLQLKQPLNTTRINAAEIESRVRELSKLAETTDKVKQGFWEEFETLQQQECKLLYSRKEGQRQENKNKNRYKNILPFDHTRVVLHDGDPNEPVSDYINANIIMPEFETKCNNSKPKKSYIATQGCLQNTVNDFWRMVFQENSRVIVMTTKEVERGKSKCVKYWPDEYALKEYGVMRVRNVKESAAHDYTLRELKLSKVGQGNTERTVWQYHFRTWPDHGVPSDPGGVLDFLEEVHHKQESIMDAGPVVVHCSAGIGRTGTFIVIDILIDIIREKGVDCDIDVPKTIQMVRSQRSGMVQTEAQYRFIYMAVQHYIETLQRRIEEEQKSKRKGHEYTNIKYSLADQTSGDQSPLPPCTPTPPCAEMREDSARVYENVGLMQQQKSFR

In the case of `Cn1c(CCCC(=O)O)c(I)c2cc(C(=O)O)c(O)cc21` [7′a, 2-(3-carboxypropyl)-6-hydroxy-3-iodo-1-methyl-1H-indole-5-carboxylic acid], the IC50 [1] is reported as greater than 20 µM.
Work on `Cn1c(CCCC(=O)Nc2cccc(OCc3ccccc3)c2)c(I)c2cc(C(=O)O)c(O)cc21` [7′a-1, 2-(4-((3-(benzyloxy)phenyl)amino)-4-oxobutyl)-6-hydroxy-3-iodo-1-methyl-1H-indole-5-carboxylic acid] yielded an IC50 [1] of 5 ± 0.3 µM.
For `Cn1c(CCCC(=O)NCc2ccc3c(c2)OCO3)c(I)c2cc(C(=O)O)c(O)cc21` [7′a-2, 2-(4-((benzo[d][1,3]dioxol-5-ylmethyl)amino)-4-oxobutyl)-6-hydroxy-3-iodo-1-methyl-1H-indole-5-carboxylic acid], the IC50 [1] was 12.6 ± 2.8 µM.
In the case of `Cn1c(CCCC(=O)Nc2ccc(OCc3ccccc3)c(Cl)c2)c(I)c2cc(C(=O)O)c(O)cc21` [7′a-3, 2-(4-((4-(benzyloxy)-3-chlorophenyl)amino)-4-oxobutyl)-6-hydroxy-3-iodo-1-methyl-1H-indole-5-carboxylic acid], the IC50 [1] is reported as greater than 20 µM.
`Cn1c(-c2ccc(C(=O)O)cc2)c(I)c2cc(C(=O)O)c(O)cc21` [7′c, 2-(4-carboxyphenyl)-6-hydroxy-3-iodo-1-methyl-1H-indole-5-carboxylic acid] showed an IC50 [1] of 9.2 ± 0.5 µM.
In the case of `Cn1c(-c2ccc(C(=O)Nc3cccc(OCc4ccccc4)c3)cc2)c(I)c2cc(C(=O)O)c(O)cc21` [7′c-1, 2-(4-((3-(benzyloxy)phenyl)carbamoyl)phenyl)-6-hydroxy-3-iodo-1-methyl-1H-indole-5-carboxylic acid], the IC50 [1] is reported as 2.4 ± 0.1 µM.
For `Cn1c(-c2ccc(C(=O)Nc3ccc(OCc4ccccc4)c(Cl)c3)cc2)c(I)c2cc(C(=O)O)c(O)cc21` [7′c-3, 2-(4-((4-(benzyloxy)-3-chlorophenyl)carbamoyl)phenyl)-6-hydroxy-3-iodo-1-methyl-1H-indole-5-carboxylic acid], the “potency for SHP2 relative to 7′a-3” value [1] was 12 fold and the IC50 [1] was 1.6 µM.
In the case of `Cn1c(-c2cccc(NC(=O)C(=O)O)c2)c(I)c2cc(C(=O)O)c(O)cc21` [10a, 2-(3-(carboxyformamido)phenyl)-6-hydroxy-3-iodo-1-methyl-1H-indole-5-carboxylic acid], the “effect on Erk1/2 phosphorylation (SHP2 dependent signaling), in words” value [2] is reported as “no effect; also recorded: failed to block”, the “effect on Paxillin phosphorylation, in words” value [3] is reported as “no effect” and the IC50 [4] is reported as 14.4 µM.
In the case of `Cn1c(-c2ccccc2)c(-c2cn(CCC(=O)Nc3ccc(-c4ccccc4)cc3)nn2)c2cc(C(=O)O)c(O)cc21` [IIB08], the “growth of WT KIT bearing 32D cells” value [5] is reported as “no significant suppression”, the “ligand independent growth of KITD814V bearing 32D cells” value ([6]; 1 μM) is reported as “not at 1 μM concentration” and the “ligand independent growth of KITD814V bearing 32D cells” value ([6]; 5 μM) is reported as “significant suppression”. For the same compound, the “survival of leukemic mice” value [7] was “significantly prolonged the survival”, the hematopoietic progenitor proliferation [8] was “blocked” and the “growth factor stimulated ERK1/2 activation” value [9] was “blocked”. The “oncogenic KITD814V induced ligand independent growth” value [10] was “suppressed”.
